The supplement of paper PMC11208160

Assay: recombinant barcode read abundance after kanamycin selection (control-corrected) (log10(CPM+1)); higher = more efficient recombination; sequences stand for … in AGTGCAGAGAAAATCGGCCAGTTTTCTCTGCCTGCAGTCCGCATGCCGT…AGATTTATGCAGCGGACTGCCTTTCTCCCAAAGTGATAAACCGGACAGTATCATGGACCGGTTTTCCCGGTAATCCGTATTTGCAAGGTTGGTTTCACT; site = the 11-nt target
How it was run: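 Reported as log10(CPM+1), each value stands for recombination efficiency. That efficiency is the averaged, control-corrected counts per million of barcodes found at recombinant junctions. Cells from a pooled E. coli library pairing targets with IS621 bridge RNA target-binding loops were plated twice on chloramphenicol/ampicillin LB agar (control) and twice on chloramphenicol/ampicillin/kanamycin with 0.1 mM IPTG.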
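Also: IS621 recombinase and bridge RNA in Escherichia coli cells.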

For “TGGATCACTTGGGTTCTAACCTGTTGCCT (site TGGACCACTAG)”, the “recombinant barcode read abundance (log10)” value was 0.0457.

With “TGGATCACTTGGGTTCTAACCTGTTGCCT (site TGGAGCACTAG)” the “recombinant barcode read abundance (log10)” value was 0.0771.

With “TGGATCACTTGGGTTCTAACCTGTTGCCT (site TGGATCACTAG)” the “recombinant barcode read abundance (log10)” value was 1.09.

For “TGGCCCTCTTGGGTTCTAACCTGTTGCTC (site TGGCCCTCTAA)”, the “recombinant barcode read abundance (log10)” value was 0.0244.

With “TGGCCCTCTTGGGTTCTAACCTGTTGCTC (site TGGCCCTCTCA)” the “recombinant barcode read abundance (log10)” value was 0.304.

In the case of “TGGCCCTCTTGGGTTCTAACCTGTTGCTC (site TGGCCCTCTGA)”, the “recombinant barcode read abundance (log10)” value is reported as 1.79.

In the case of “TGGCCCTCTTGGGTTCTAACCTGTTGCTC (site TGGCCCTCTTA)”, the “recombinant barcode read abundance (log10)” value is reported as 0.0751.

With “TGGCGTACTTGGGTTCTAACCTGTTGCCT (site TGGAGTACTAG)” the “recombinant barcode read abundance (log10)” value was 0.

For “TGGCGTACTTGGGTTCTAACCTGTTGCCT (site TGGCGTACTAG)”, the “recombinant barcode read abundance (log10)” value was 0.229.

In the case of “TGGCGTACTTGGGTTCTAACCTGTTGCCT (site TGGGGTACTAG)”, the “recombinant barcode read abundance (log10)” value is reported as 0.0637.

For “TGGCGTACTTGGGTTCTAACCTGTTGCCT (site TGGTGTACTAG)”, the “recombinant barcode read abundance (log10)” value was 0.149.

With “TGGCTAGCTTGGGTTCTAACCTGTTGCCT (site TGACTAGCTAG)” the “recombinant barcode read abundance (log10)” value was 0.052.

With “TGGCTAGCTTGGGTTCTAACCTGTTGCCT (site TGCCTAGCTAG)” the “recombinant barcode read abundance (log10)” value was 0.0442.

For “TGGCTAGCTTGGGTTCTAACCTGTTGCCT (site TGGCTAGCTAG)”, the “recombinant barcode read abundance (log10)” value was 0.242.

With “TGGCTAGCTTGGGTTCTAACCTGTTGCCT (site TGTCTAGCTAG)” the “recombinant barcode read abundance (log10)” value was 0.0845.

In the case of “TGGGACCCTTGGGTTCTAACCTGTTGCAT (site TGCGACCCTAA)”, the “recombinant barcode read abundance (log10)” value is reported as 0.261.

For “TGGGACCCTTGGGTTCTAACCTGTTGCAT (site TGGGACCCTAT)”, the “recombinant barcode read abundance (log10)” value was 1.25.

With “TGGGCGGCTTGGGTTCTAACCTGTTGCCT (site TAGGTGGCTAG)” the “recombinant barcode read abundance (log10)” value was 0.133.

With “TGGGCGGCTTGGGTTCTAACCTGTTGCCT (site TGGGCGGCTAG)” the “recombinant barcode read abundance (log10)” value was 0.411.

In the case of “TGGGGCCCTTGGGTTCTAACCTGTTGCCG (site GCAATTACTAA)”, the “recombinant barcode read abundance (log10)” value is reported as 0.09.

With “TGGGGCCCTTGGGTTCTAACCTGTTGCCG (site TGGGGCCCTCG)” the “recombinant barcode read abundance (log10)” value was 1.9.

In the case of “TGGGTGACTTGGGTTCTAACCTGTTGCCT (site GCCTGCCCTCA)”, the “recombinant barcode read abundance (log10)” value is reported as 0.422.

In the case of “TGGGTGACTTGGGTTCTAACCTGTTGCCT (site TGGGTGACTAG)”, the “recombinant barcode read abundance (log10)” value is reported as 0.057.

In the case of “TGGTAACCTTGGGTTCTAACCTGTTGCCT (site AGGTAACCTAG)”, the “recombinant barcode read abundance (log10)” value is reported as 0.0194.

With “TGGTAACCTTGGGTTCTAACCTGTTGCCT (site CGGTAACCTAG)” the “recombinant barcode read abundance (log10)” value was 0.172.

With “TGGTAACCTTGGGTTCTAACCTGTTGCCT (site GGGTAACCTAG)” the “recombinant barcode read abundance (log10)” value was 0.148.

With “TGGTAACCTTGGGTTCTAACCTGTTGCCT (site TGGTAACCTAG)” the “recombinant barcode read abundance (log10)” value was 0.571.

For “TGGTATGCTTGGGTTCTAACCTGTTGCCT (site TGGTATACTAG)”, the “recombinant barcode read abundance (log10)” value was 0.5.

For “TGGTATGCTTGGGTTCTAACCTGTTGCCT (site TGGTATCCTAG)”, the “recombinant barcode read abundance (log10)” value was 0.0685.

In the case of “TGGTATGCTTGGGTTCTAACCTGTTGCCT (site TGGTATGCTAG)”, the “recombinant barcode read abundance (log10)” value is reported as 1.39.

In the case of “TGGTATGCTTGGGTTCTAACCTGTTGCCT (site TGGTATTCTAG)”, the “recombinant barcode read abundance (log10)” value is reported as 0.

For “TGGTCTACTTGGGTTCTAACCTGTTGCTT (site TGATCTACTAA)”, the “recombinant barcode read abundance (log10)” value was 0.

In the case of “TGGTCTACTTGGGTTCTAACCTGTTGCTT (site TGCTCTACTAA)”, the “recombinant barcode read abundance (log10)” value is reported as 0.0743.

With “TGGTCTACTTGGGTTCTAACCTGTTGCTT (site TGGTCTACTAA)” the “recombinant barcode read abundance (log10)” value was 0.154.

In the case of “TGGTCTACTTGGGTTCTAACCTGTTGCTT (site TGTTCTACTAA)”, the “recombinant barcode read abundance (log10)” value is reported as 0.0113.

For “TGGTTCGCTTGGGTTCTAACCTGTTGCCT (site TGGTACGCTAG)”, the “recombinant barcode read abundance (log10)” value was 0.0339.

With “TGGTTCGCTTGGGTTCTAACCTGTTGCCT (site TGGTCCGCTAG)” the “recombinant barcode read abundance (log10)” value was 0.0365.

In the case of “TGGTTCGCTTGGGTTCTAACCTGTTGCCT (site TGGTGCGCTAG)”, the “recombinant barcode read abundance (log10)” value is reported as 0.0185.

In the case of “TGGTTCGCTTGGGTTCTAACCTGTTGCCT (site TGGTTCGCTAG)”, the “recombinant barcode read abundance (log10)” value is reported as 1.43.

With “TGTAATACTTGGGTTCTAACCTGTTGCCT (site TGTAATACTAG)” the “recombinant barcode read abundance (log10)” value was 0.0354.

For “TGTAATACTTGGGTTCTAACCTGTTGCCT (site TGTAATCCTAG)”, the “recombinant barcode read abundance (log10)” value was 0.0997.

For “TGTAATACTTGGGTTCTAACCTGTTGCCT (site TGTAATGCTAG)”, the “recombinant barcode read abundance (log10)” value was 0.147.

For “TGTAATACTTGGGTTCTAACCTGTTGCCT (site TGTAATTCTAG)”, the “recombinant barcode read abundance (log10)” value was 0.121.
